Laboratory results published in patent publication US20030162732A1, “Combination of aminosugars and cysteine or cysteine derivatives” (Astion Development A/S, priority 2001, published 2003).

Legend:
[1] = tested on: carrageenin-induced paw oedema; test: carrageenin-induced paw oedema test in the rat; type: in vivo; details: day 0
Text: The objective of this study is to assess the effect of complexes or compositions of the invention in the carrageenin-induced paw oedema test in the rat, a commonly employed method for screening and evaluation of antiinflammatory drugs. Carrageenin, the phlogistic agent of choice for testing antiinflammatory drugs, is a mucopolysaccharide derived from Irish sea moss, Chondrus. Ibuprofen is used as a positive control.
The test article is the complex of the invention prepared according to example 105 (Compound 105 in the following). Compound 105 and Ibuprofen are obtained from Astion A/S, Denmark.
The test article is dissolved in milli-Q water. 0.9% NaCl solution is used as vehicle.
The study is performed in male SPF Sprague Dawley rats of the stock Mol:SPRD from M & B A/S, Tornbjergvej 40, DK-4623 Lille Skensved, Denmark. At start of the acclimatisation period the rats are in the weight range of 80-100 g.
All doses of Compound 105 are administered intraperitoneally in volumes of 20 ml per kg body weight, once daily on day −2 and −1 to groups 2,3 and 4 only and on day 0 to groups 2-6, 0-5 minutes before injection of carrageenin into the foot on day 0. Ibuprofen and vehicle are administered orally by gavage in volumes of 20 ml/kg body weight on day 0, 0-5 minutes before injection of the carrageenin into the foot.
Carrageenin (from Sigma) is prepared as a 1% suspension in sterile 0.9% NaCl-solution. A volume of 0.1 ml is injected through a 25-gauge needle into the plantar tissue of the right hind paw of the rats within 5 minutes after treatment with the test articles.
Immediately before the dosing and carrageenin injection and three and five hours later the foot volume is measured using a plethysmometer LE 7500 from Letica Scientific Instruments, Spain.

[2] = tested on: tendonitis of the arm; osteoarthritis of the hips and knees; knee injury involving cartilage damage; test: small preliminary clinical investigation, three persons, oral aqueous solution of compound 105; type: in vivo, human; details: person, normal doses, patient history
Protocol: In a small preliminary clinical investigation three persons administered a pharmaceutical composition according to the invention. The composition was an aqueous solution (100 mg/ml) of compound 105, which is the complex of the invention prepared according to example 105.
One patient was […] and had suffered from tendonitis of the arm for eight months. The symptoms were chronic muscle pain and some degree of immobility of the arm.
The composition of the invention was administered orally corresponding to 3000 mg compound 105 twice a day. […] After a further week of treatment the treatment was discontinued.
Another patient was […] and had suffered from osteoarthritis of the hips and knees for ten years. For some periods the patient had been treated with celecoxib, paracetamol and/or codein to control the pain. The main symptoms were pain and immobility of the joints. The composition of the invention was administered orally corresponding to 3000 mg compound 105 twice a day.
The symptoms were pain and immobility of the knee joint. The composition of the invention was administered orally corresponding to 3000 mg compound 105 twice a day. […] During the next two days the symptoms started reappearing.

CC(C)Cc1ccc(C(C)C(=O)O)cc1 (centres unmarked) [Ibuprofen]
inhibition of the paw oedema ([1]; after 5 hours, 50 mg/kg orally by gavage): 77% | inhibition of the paw oedema ([1]; after 5 hours, 150 mg/kg orally by gavage): 97% | inhibition of the paw oedema ([1]; after three hours, 50 mg/kg orally by gavage): 37% | inhibition of the paw oedema ([1]; after three hours, 150 mg/kg orally by gavage): 57% | symptomatic effect of earlier treatment [2]: limited symptomatic effect
